According to patent US7989446B2, “4-amino 5-cyanopyrimidine derivatives” (Otsuka Pharmaceutical Co., Ltd., priority 2004, dated 2011):
Structures can show the parent of a compound that is named as a salt.

What was measured:
[1] = molecular target: T1, adenosine A2a receptor (Human) (Homo sapiens, UniProt P29274); assay: c-AMP generating action in cell expressing adenosine A2a receptor; type: cell-based; details: HEK293 cell expressing human A2a; 100% = c-AMP caused by 1 μM CGS-21680; read-out: A2a Agonistic Action (EC50)
T1 construct: host or cells: HEK293
Procedure: (1) c-AMP Generating Action in Cell Expressing Adenosine A2a Receptor
The test was carried out as mentioned below with reference to the method disclosed in the reference (Klotz k. N. et al., Naunyn-Schmiedeberg's Arch. Pharmacol., (1998) 357, 1-9; Shryock J. C. et al., Molecular Pharmacology, (1998) 53, 886-893).
As to the cell, HEK293 cell expressing adenosine A2a receptor (Human) (PerkinElmer Life Sciences, Code No. RBHA2AC) was used.
As to the culture medium, Dulbecco's modified Eagles medium (DMEM) including 10% FBS (Fetal bovine serum) and 1 mM of sodium pyruvate was used.
The cell was placed on 96 well plate (1×10^5/well), and cultured overnight. After removing off the supernatant, to each well, 0.1 ml of DMEM (without FBS) containing 20 mM HEPES, 0.1 mM of IBMX (3-isobutyl-1-methylxanthine) and 2 unit/mL adenosine deaminase was added, and they were incubated at 37° C. for 30 minutes. To each well, 0.1 ml of the culture medium including the DMSO solution of the test compound in an appropriate concentration was added and they were incubated for additional 30 minutes. After removing off the supernatant, the cytolytic solution was added to quench the reaction. The amount of c-AMP in each well was measured by using the c-AMP enzyme immunoassay (EIA) system (Amersham Biosciences, Code No. RPN225).
The same assay was repeated using CGS-21680 (2-p-carboxyethyl)phenethylamino-5′-N-ethylcarboxamidoadenosine hydrochloride, (Sigma, code C141) as reference compound. The amount of resultant c-AMP in the medium, caused by 1 μM of reference compound, was defined to be 100%. A concentration of assayed compound in the medium, producing 50% c-AMP amounts, was calculated to be EC50 value.

[2] = system: Intraocular Pressure in Rabbit; assay: Measuring test for intraocular pressure in rabbit; type: in vivo, Female New Zealand white rabbits; details: 0.3% suspended ophthalmic preparation, test group, mean±standard error
Procedure: (3) Measuring Test for Intraocular Pressure in Rabbit
The test compounds were dissolved in 10 mM of phosphate buffer (pH 7.5) (hereinafter, referred to as “vehicle of ophthalmic preparation”), and they were instilled in a given concentration. In addition, the compounds insoluble in that concentration was used as a suspension. Female New Zealand white rabbits (KITAYAMA LABES Co., Ltd.) whose weights were 2.0-4.0 kg were used.
The measurement of the intraocular pressure was carried out using Pneumatonometer (Model 30 Classic, Mentor company) without anesthesia. In addition, before the measurement of the intraocular pressure, the surface anesthesia with 0.4% oxybuprocaine hydrochloride (“Benoxil” 0.4% ophthalmic solution, Santen Pharmaceutical Co., Ltd.) was carried out.
The animals whose intraocular pressure was stable before instillation were selected, and these animals were divided to every 4 animal in each one group, 50 μL of eye drops including each the test compound was administered to one-sided eye and vehicle was administered to contralateral eye as the control eye. The measurement of intraocular pressure was carried out before instillation and after 0.5, 1, 2, 3, 4 and 6 hours from instillation. The effect on the intraocular pressure was shown as the difference from pre-instillation (ΔIOP, mmHg, mean±standard error). The following Tables 14 and 15 show the results of Control Compounds A and B used as 1% suspensions which are the same as in the pharmacological test (1).
The animals were pretreated as mentioned above, and among them animals whose intraocular pressure was stable before instillation were selected, and these animals were divided to every 5 to 8 animal in each one group. Every two group was used for each of the test compounds. The test compound was administered unilaterally to the eye of the test group rabbit and the intraocular pressure was measured. The vehicle was administered unilaterally to the eye of the control group rabbit and the intraocular pressure was measured. As mentioned above, the measurement of intraocular pressure was carried out before instillation and after 0.5, 1, 2, 3, 4 and 6 hours from instillation, and the effect on the intraocular pressure was shown as the difference from pre-instillation (ΔIOP, mmHg, mean±standard error).

T1 sequence (P29274 whole entry): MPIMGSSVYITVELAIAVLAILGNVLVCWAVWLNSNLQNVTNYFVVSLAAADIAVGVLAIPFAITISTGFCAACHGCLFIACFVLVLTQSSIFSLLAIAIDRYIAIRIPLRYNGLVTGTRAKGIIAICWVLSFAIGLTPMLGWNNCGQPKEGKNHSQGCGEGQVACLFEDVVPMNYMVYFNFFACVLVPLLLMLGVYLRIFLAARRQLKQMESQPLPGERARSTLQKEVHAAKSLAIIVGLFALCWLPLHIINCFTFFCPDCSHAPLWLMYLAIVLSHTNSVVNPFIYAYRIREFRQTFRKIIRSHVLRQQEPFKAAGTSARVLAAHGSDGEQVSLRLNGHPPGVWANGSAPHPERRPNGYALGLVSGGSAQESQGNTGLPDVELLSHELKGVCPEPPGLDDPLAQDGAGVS

EC50 [1] [nM]	SMILES	other results
23	CCCS(=O)(=O)N(C)Cc1cccc(CSc2nc(N)c(C#N)c(-c3ccc(NC(C)=O)cc3)n2)n1 [Example 41, N-{4-[6-amino-5-cyano-2-(6-{[methyl(propan-1-sulfonyl)amino]methyl}-pyridin-2-ylmethylsulfanyl)pyrimidin-4-yl]phenyl}acetamide]	
48	CC(=O)Nc1ccc(-c2nc(SCc3cccc(CNC(=O)CCCN4CCCC4)n3)nc(N)c2C#N)cc1 [Example 33, N-{6-[4-(4-acetylaminophenyl)-6-amino-5-cyanopyrimidin-2-ylsulfanylmethyl]pyridin-2-ylmethyl}-4-pyrrolidin-1-ylbutyl-amide]	
8.2	CCC(=O)CCc1cccc(CSc2nc(N)c(C#N)c(-c3ccc(NC(C)=O)cc3)n2)n1 [Example 82, N-(4-{6-amino-5-cyano-2-[6-(3-oxopentyl)pyridin-2-ylmethylsulfanyl]pyrimidin-4-yl}phenyl)acetamide]	
5.1	CN1CCN(C(=O)CCc2cccc(CSc3nc(N)c(C#N)c(-c4ccc(N)cc4)n3)n2)CC1 [Example 56, 4-amino-6-(4-aminophenyl)-2-{6-[3-(4-methylpiperazin-1-yl)-3-oxopropyl]-pyridin-2-ylmethylsulfanyl}pyrimidin-5-carbonitrile]	
38	CCCC(=O)Nc1ccc(-c2nc(SCc3cccc(CCC(=O)N4CCN(C)CC4)n3)nc(N)c2C#N)cc1 [Example 58, N-[4-(6-amino-5-cyano-2-{6-[3-(4-methylpiperazin-1-yl)-3-oxopropyl]pyridin-2-ylmethylsulfanyl}pyrimidin-4-yl)phenyl]-butylamide]	
2.5	CC(=O)Nc1ccc(-c2nc(SCc3cccc(CCC(=O)N4CCNCC4)n3)nc(N)c2C#N)cc1 [Example 74, N-(4-{6-amino-5-cyano-2-[6-(3-oxo-3-piperazin-1-ylpropyl)pyridin-2-ylmethylsulfanyl]-pyrimidin-4-yl}phenyl)acetamide hydrochloride]	
8.8	CC(=O)Nc1ccc(-c2nc(SCc3cccc(CCC(=O)N4CCCCC4CO)n3)nc(N)c2C#N)cc1 (stereo not drawn) [Example 70, N-[4-(6-amino-5-cyano-2-{6-[3-(2-hydroxymethylpiperidin-1-yl)-3-oxopropyl]pyridin-2-ylmethylsulfanyl}pyrimidin-4-yl)phenyl]acetamide hydrochloride]	
7	CC(=O)Nc1ccc(-c2nc(SCc3cccc(C#CCCC(=O)N4CCN(C)CC4)n3)nc(N)c2C#N)cc1 [Example 52, N-[4-(6-amino-5-cyano-2-{6-[5-(4-methylpiperazin-1-yl)-5-oxopent-1-ynyl]pyridin-2-ylmethylsulfanyl}pyrimidin-4-yl)phenyl]acetamide]	
5.5	CCN(CC)CCN1CCN(C(=O)CCCCc2cccc(CSc3nc(N)c(C#N)c(-c4ccc(NC(C)=O)cc4)n3)n2)CC1 [Example 55, N-{4-[6-amino-5-cyano-2-(6-{5-[4-(2-diethylaminoethyl)piperazin-1-yl]-5-oxopentyl}pyridin-2-ylmethylsulfanyl)pyrimidin-4-yl]phenyl}acetamide hydrochloride]	
10	CC(=O)Nc1ccc(-c2nc(SCc3cccc(CCC(=O)OC(C)(C)C)n3)nc(N)c2C#N)cc1 [Example 42, t-butyl 3-{6-[4-(4-acetylaminophenyl)-6-amino-5-cyanopyrimidin-2-ylsulfanyl-methyl]pyridin-2-yl}propionate]	

Further lines, the compound ahead of its results:

SMILES	EC50 [1] [nM]	other results
CC(=O)Nc1ccc(-c2nc(SCc3ccc(C)cn3)nc(N)c2C#N)cc1 [Example 3, N-{4-[6-amino-5-cyano-2-(5-methylpyridin-2-ylmethylsulfanyl)pyrimidin-4-yl]phenyl}acetamide]	65.7	
CCNC(=O)[C@H]1O[C@@H](n2cnc3c(N)nc(NCCc4ccc(CCC(=O)O)cc4)nc32)[C@H](O)[C@@H]1O [CGS-21680, (2-p-carboxyethyl)phenethylamino-5′-N-ethylcarboxamidoadenosine hydrochloride, reference compound]		ΔIOP (mmHg) ([2]; 0.5 hr): −2.5 ± 0.4 mmHg; ΔIOP (mmHg) ([2]; 1 hr): −6.3 ± 0.6 mmHg; ΔIOP (mmHg) ([2]; 2 hr): −4.2 ± 0.4 mmHg; ΔIOP (mmHg) ([2]; 3 hr): −3.5 ± 0.4 mmHg; ΔIOP (mmHg) ([2]; 4 hr): −1.5 ± 0.7 mmHg; ΔIOP (mmHg) ([2]; 6 hr): 0.3 ± 0.4 mmHg
CC(=O)Nc1ccc(-c2nc(SCc3cc(C)ccn3)nc(N)c2C#N)cc1 [Example 4, N-{4-[6-amino-5-cyano-2-(4-methylpyridin-2-ylmethylsulfanyl)pyrimidin-4-yl]phenyl}acetamide]	879	
CC(=O)Nc1ccc(-c2nc(SCc3cccc(C(=O)N4CCOCC4)n3)nc(N)c2C#N)cc1 [Example 26, N-(4-{6-amino-5-cyano-2-[6-(morpholin-4-carbonyl)pyridin-2-ylmethyl-sulfanyl]pyrimidin-4-yl}phenyl)acetamide hydrochloride salt]	30.7	
CC(=O)Nc1ccc(-c2nc(SCc3cccc(CN4CCN(C(=O)CN5CCN(C)CC5)CC4)n3)nc(N)c2C#N)cc1 [Example 21, N-{4-[6-amino-5-cyano-2-(6-{4-[2-(4-methylpiperazin-1-yl)acetyl]piperazin-1-ylmethyl}pyridin-2-ylmethylsulfanyl)pyrimidin-4-yl]phenyl}acetamide hydrochloride]	10.6	
CC(=O)Nc1ccc(-c2nc(SCc3ccccn3)nc(N)c2C#N)cc1 [Example 1, N-{4-[6-amino-5-cyano-2-(pyridin-2-ylmethylsulfanyl)-pyrimidin-4-yl]phenyl}acetamide]	39.6	
CCC(=O)Nc1ccc(-c2nc(SCc3cccc(C)n3)nc(N)c2C#N)cc1 [Example 9, N-{4-[6-amino-5-cyano-2-(6-methylpyridin-2-ylmethylsulfanyl)-pyrimidin-4-yl]phenyl}propionamide]	9	
CC(=O)Nc1ccc(-c2nc(SCc3cccc(CN4CCN(C(=O)OC(C)(C)C)CC4)n3)nc(N)c2C#N)cc1 [Example 17, t-butyl 4-{6-[4-(4-acetylaminophenyl)-6-amino-5-cyanopyrimidin-2-ylsulfanyl-methyl]-pyridin-2-ylmethyl}piperazine-1-carboxylate]	6.8	
C=CC(=O)Nc1ccc(-c2nc(SCc3cccc(C)n3)nc(N)c2C#N)cc1 [Example 10, N-{4-[6-amino-5-cyano-2-(6-methylpyridin-2-ylmethylsulfanyl)pyrimidin-4-yl]phenyl}acrylamide]	19.1	
CC(=O)Nc1ccc(-c2nc(SCc3cccc(CN4CCN(C(=O)c5ccccc5)CC4)n3)nc(N)c2C#N)cc1 [Example 19, N-(4-{6-amino-2-[6-(4-benzoylpiperazin-1-ylmethyl)pyridin-2-ylmethylsulfanyl]-5-cyanopyrimidin-4-yl}phenyl)acetamide]	7.4	
Cc1cccc(CSc2nc(N)c(C#N)c(-c3ccc(N)cc3)n2)n1 [Example 8, 4-amino-6-(4-aminophenyl)-2-(6-methylpyridin-2-ylmethylsulfanyl)-pyrimidine-5-carbonitrile]	34.8	
CC(=O)Nc1ccc(-c2nc(SCc3cccc(C(=O)N4CCN(C(=O)OC(C)(C)C)CC4)n3)nc(N)c2C#N)cc1 [Example 28, t-butyl 4-{6-[4-(4-acetylaminophenyl)-6-amino-5-cyanopyrimidin-2-ylsulfanyl-methyl]pyridine-2-carbonyl}piperazine-1-carboxylate]	8.2	
